Source: ChEMBL document CHEMBL4152229, “Synthesis and biological evaluation of 2,6-disubstituted-9H-purine, 2,4-disubstitued-thieno[3,2-d]pyrimidine and -7H-pyrrolo[2,3-d]pyrimidine analogues as novel CHK1 inhibitors” (Eur J Med Chem, 2018)
Active and inactive are the calls of the source. No cut-off for these calls is given here.

Experiments:
[1] = biological target: Tyrosine-protein kinase BTK (Homo sapiens) (UniProt Q06187); assay: Inhibition of DNA-tagged BTK (unknown origin) expressed in HEK293 cells at 10 uM after 1 hr by real-time fluorescent quantitative PCR analysis; format: cell-based
HT-29 [2] = assay: Potentiation of gemcitabine-induced cell cycle arrest in human HT-29 cells assessed as accumulation at S phase at 10 uM after 48 hrs by propidium iodide/RNase staining-based flow cytometric analysis (reference value: 62.1%); format: functional
[3] = biological target: T1, Calcium/calmodulin-dependent protein kinase type IV (Homo sapiens) (UniProt Q16566); assay: Inhibition of DNA-tagged CAMK4 (unknown origin) expressed in HEK293 cells at 10 uM after 1 hr by real-time fluorescent quantitative PCR analysis; format: cell-based
T1 sequence (whole entry): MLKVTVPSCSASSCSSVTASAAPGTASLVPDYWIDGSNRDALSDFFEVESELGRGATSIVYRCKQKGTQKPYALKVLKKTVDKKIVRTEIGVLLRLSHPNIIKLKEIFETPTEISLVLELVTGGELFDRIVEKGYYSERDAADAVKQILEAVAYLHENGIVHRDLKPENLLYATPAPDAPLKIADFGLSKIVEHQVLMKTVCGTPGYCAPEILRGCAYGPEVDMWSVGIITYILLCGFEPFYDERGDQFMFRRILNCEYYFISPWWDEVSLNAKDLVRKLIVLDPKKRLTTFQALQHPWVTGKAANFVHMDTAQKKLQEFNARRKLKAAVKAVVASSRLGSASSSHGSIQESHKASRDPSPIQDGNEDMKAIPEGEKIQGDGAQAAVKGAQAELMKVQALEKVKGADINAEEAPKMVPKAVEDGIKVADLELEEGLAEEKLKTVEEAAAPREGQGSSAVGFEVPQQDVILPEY

[4] = biological target: ALK tyrosine kinase receptor (Homo sapiens) (UniProt Q9UM73); assay: Inhibition of DNA-tagged ALK (unknown origin) expressed in HEK293 cells at 10 uM after 1 hr by real-time fluorescent quantitative PCR analysis; format: cell-based
HT-29 [5] = assay: Potentiation of gemcitabine-induced cell cycle arrest in human HT-29 cells assessed as accumulation at G2 phase at 10 uM after 48 hrs by propidium iodide/RNase staining-based flow cytometric analysis (reference value: 62.1%); format: functional
[6] = biological target: MAP kinase-activated protein kinase 2 (Homo sapiens) (UniProt P49137); assay: Inhibition of DNA-tagged MAPKAPK2 (unknown origin) expressed in HEK293 cells at 10 uM after 1 hr by real-time fluorescent quantitative PCR analysis; format: cell-based
HT-29 [7] = assay: Cell cycle arrest in human HT-29 cells assessed as accumulation at S phase at 10 uM after 48 hrs by propidium iodide/RNase staining-based flow cytometric analysis (reference value: 30.9%); format: functional
HT-29 [8] = assay: Cell cycle arrest in human HT-29 cells assessed as accumulation at G2 phase at 10 uM after 48 hrs by propidium iodide/RNase staining-based flow cytometric analysis (reference value: 7.0%); format: functional
HT-29 [9] = assay: Inhibition of colony formation in human HT-29 cells at <10 uM after 2 weeks by crystal violet staining-based assay; format: functional, cell-based
HT-29 [10] = assay: Cell cycle arrest in human HT-29 cells assessed as accumulation at G1 phase at 10 uM after 48 hrs by propidium iodide/RNase staining-based flow cytometric analysis (reference value: 62.1%); format: functional
HEK293 = assay: Antiproliferative activity against human HEK293 cells after 72 hrs by MTS assay; format: functional; settings: HEK293, 72 h
[11] = biological target: cAMP-dependent protein kinase catalytic subunit alpha (Homo sapiens) (UniProt P17612); assay: Inhibition of DNA-tagged PKACalpha (unknown origin) expressed in HEK293 cells at 10 uM after 1 hr by real-time fluorescent quantitative PCR analysis; format: cell-based
[12] = biological target: T2, Serine/threonine-protein kinase Chk1 (Homo sapiens) (UniProt O14757); assay: Inhibition of DNA-tagged CHK1 (unknown origin) expressed in HEK293 cells at 10 uM after 1 hr by real-time fluorescent quantitative PCR analysis; format: cell-based
T2 sequence (whole entry): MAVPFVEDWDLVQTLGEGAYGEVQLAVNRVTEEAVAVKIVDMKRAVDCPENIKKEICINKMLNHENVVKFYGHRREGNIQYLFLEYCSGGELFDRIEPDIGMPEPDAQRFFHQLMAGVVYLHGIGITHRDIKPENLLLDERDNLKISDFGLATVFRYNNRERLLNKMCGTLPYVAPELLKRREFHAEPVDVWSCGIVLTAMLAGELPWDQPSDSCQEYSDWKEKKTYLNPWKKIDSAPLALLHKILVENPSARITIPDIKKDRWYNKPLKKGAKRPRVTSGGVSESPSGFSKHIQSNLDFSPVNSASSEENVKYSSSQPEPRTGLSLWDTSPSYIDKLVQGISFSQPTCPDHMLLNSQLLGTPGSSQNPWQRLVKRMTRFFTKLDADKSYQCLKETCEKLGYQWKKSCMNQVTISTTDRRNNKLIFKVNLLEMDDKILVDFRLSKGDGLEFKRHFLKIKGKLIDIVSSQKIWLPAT

Chain of MAP kinase-activated protein kinase 2 (Homo sapiens) (P49137 whole entry, looked up): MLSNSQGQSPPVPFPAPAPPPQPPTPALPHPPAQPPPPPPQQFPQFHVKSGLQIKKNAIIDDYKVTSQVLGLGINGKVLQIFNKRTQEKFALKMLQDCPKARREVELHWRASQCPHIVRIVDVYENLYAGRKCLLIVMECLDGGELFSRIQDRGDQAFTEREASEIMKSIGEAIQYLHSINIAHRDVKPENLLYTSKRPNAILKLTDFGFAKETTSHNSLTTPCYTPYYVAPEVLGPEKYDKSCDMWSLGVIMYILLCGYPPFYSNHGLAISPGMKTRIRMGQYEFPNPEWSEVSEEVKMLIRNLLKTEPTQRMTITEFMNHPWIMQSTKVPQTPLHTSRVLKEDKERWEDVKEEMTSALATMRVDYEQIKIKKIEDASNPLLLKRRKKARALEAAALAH
Chain of ALK tyrosine kinase receptor (Homo sapiens) (Q9UM73 19-1620 limits assumed): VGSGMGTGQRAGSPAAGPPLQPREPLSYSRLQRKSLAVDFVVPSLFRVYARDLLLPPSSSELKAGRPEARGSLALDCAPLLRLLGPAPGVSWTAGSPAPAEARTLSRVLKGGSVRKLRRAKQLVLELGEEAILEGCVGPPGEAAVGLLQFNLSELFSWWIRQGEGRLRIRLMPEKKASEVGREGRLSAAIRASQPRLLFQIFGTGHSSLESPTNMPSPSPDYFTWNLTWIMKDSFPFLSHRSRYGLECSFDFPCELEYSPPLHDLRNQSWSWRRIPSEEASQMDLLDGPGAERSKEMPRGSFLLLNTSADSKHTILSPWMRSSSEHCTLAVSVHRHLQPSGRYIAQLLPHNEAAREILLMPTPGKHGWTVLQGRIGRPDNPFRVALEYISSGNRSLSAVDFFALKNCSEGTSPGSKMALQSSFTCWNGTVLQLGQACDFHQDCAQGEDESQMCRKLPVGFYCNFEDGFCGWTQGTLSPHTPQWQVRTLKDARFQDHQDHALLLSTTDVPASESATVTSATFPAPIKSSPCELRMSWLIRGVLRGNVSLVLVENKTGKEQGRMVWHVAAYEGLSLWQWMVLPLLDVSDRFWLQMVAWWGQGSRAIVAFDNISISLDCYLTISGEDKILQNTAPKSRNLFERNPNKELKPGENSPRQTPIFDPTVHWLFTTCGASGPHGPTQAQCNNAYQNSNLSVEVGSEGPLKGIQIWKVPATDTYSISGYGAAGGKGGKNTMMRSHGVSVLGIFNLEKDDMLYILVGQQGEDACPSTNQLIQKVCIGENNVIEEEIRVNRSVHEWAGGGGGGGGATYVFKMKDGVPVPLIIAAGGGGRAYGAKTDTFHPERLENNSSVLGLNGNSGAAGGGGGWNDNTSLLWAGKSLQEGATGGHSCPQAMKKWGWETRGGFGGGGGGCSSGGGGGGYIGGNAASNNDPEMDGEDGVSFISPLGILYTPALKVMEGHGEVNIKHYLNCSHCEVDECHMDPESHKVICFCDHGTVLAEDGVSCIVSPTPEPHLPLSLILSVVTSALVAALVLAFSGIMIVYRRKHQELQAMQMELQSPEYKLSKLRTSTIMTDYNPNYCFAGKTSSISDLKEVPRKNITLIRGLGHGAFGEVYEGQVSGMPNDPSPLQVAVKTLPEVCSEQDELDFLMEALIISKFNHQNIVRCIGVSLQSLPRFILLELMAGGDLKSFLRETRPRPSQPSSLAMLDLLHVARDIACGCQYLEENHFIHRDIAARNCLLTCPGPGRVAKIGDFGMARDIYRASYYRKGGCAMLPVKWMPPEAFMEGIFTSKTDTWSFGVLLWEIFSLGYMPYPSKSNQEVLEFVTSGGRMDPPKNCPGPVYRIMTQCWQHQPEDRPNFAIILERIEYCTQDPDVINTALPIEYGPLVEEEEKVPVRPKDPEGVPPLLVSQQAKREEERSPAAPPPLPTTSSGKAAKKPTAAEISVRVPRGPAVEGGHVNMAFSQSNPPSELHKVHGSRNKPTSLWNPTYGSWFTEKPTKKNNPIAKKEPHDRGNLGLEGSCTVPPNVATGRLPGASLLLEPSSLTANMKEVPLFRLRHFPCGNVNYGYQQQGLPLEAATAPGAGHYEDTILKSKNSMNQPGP
Chain of Tyrosine-protein kinase BTK (Homo sapiens) (Q06187 whole entry): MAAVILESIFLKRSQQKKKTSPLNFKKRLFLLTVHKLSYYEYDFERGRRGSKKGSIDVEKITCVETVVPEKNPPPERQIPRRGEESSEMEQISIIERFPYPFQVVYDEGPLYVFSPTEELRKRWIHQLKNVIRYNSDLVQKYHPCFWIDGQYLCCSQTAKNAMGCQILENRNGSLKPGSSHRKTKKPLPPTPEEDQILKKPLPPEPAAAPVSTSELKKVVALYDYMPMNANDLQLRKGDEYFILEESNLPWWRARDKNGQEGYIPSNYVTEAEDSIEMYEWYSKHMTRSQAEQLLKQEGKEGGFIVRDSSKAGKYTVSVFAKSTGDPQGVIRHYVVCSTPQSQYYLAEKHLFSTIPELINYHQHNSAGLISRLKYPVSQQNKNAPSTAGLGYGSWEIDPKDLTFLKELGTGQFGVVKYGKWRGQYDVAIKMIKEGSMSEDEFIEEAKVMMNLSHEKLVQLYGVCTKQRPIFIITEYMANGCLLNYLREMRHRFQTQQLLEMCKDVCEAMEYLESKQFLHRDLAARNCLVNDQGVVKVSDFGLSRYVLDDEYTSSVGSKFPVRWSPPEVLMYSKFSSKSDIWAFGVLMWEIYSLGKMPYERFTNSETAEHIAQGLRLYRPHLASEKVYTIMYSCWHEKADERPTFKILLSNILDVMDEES

Compound `Fc1ccc(Nc2nc(N3CCOCC3)c3nc[nH]c3n2)cc1` has an inhibition [1] of 35%, an Activity (HT-29 [2]) of 61% and an inhibition [3] of 0%. The inhibition [4] was 1%, the Activity (HT-29 [5]) was 25.2% and the inhibition [6] was 18%. The Activity (HT-29 [7]) was 29.5%, the Activity (HT-29 [8]) was 10.5% and the inhibition (HT-29 [9]) was “inactive”. The Activity (HT-29 [10]) was 60%, the GI50 (HEK293) was > 100 µM and the inhibition [11] was 0%. The inhibition [12] was 89.9%.
